This note sets out measurements from patent US20230007838A1, “FUNCTIONALIZED LONG-CHAIN HYDROCARBON MONO- AND DI-CARBOXYLIC ACIDS AND THEIR USE FOR THE PREVENTION OR TREATMENT OF DISEASE” (ESPERVITA THERAPEUTICS, INC., priority 2019, published 2023).

Test [1] has as its system Hepa1-6 cells. The test can be described thus: Clonogenicity (colony formation) in Hepa1-6 liver cancer cells. It is filed as cell-based, murine. Conditions: Mus musculus, 168 h; Hepa1-6 (m), 7 days treatment. The method, then: (§1) Liver cancer cell lines Hep3B (human) and Hepa1-6 (murine) were maintained in either Eagle's Minimum Essential Medium (Corning) for Hep3B cells or High Glucose DMEM (Gibco) for Hepa1-6 cells, supplemented with 10% FBS (Gibco) and 1% Antibiotic-Antimycotic (Thermo-Fisher Scientific). Each cell line was seeded at 1000 cells/well in 12-well plates. The next day, the media were replaced, and cells were treated with 0 (vehicle control, 0.1% DMSO), 1, 5, 10, 30, 50, or 100 μM Compound I-32, I-61, I-1, or III-1 (final concentration of DMSO 0.1%) for 7 days. On day 9, the media were removed, and cells were fixed with 10% formalin (500 μl) for 10 minutes at room temperature, washed with 1×PBS and stained with crystal violet. After 10 minutes the excess stain was removed by rinsing three times with tap water. The plates were allowed to dry overnight, then the number of colonies (>50 cells) in each well were counted using light microscopy as described previously by Villiani L. A., et al.

The subject of test [2] is Hep3B cells. The test can be described thus: Clonogenicity (colony formation) in Hep3B liver cancer cells. It is filed as cell-based. Conditions: Homo sapiens, 168 h, 7 days treatment. The method, then:
as §1

The subject of test [3] is Hepa1-6 cells. Kind of test: Cancer cell proliferation (PrestoBlue) in Hepa1-6 cells. Format: cell-based, murine. The settings on record: Hepa1-6 (m), 72 hours. The procedure:
(§2) Human liver cancer cells Hep3B and murine liver cancer cells Hepa1-6, respectively, were seeded at a cell density of 3000 cells/well in 96-well plates using either Eagle's Minimum Essential Medium (Corning) for Hep3B or Dulbecco's Modified Eagle's Medium (DMEM) High Glucose (Gibco) for Hepa1-6 cells, supplemented with 10% fetal bovine serum (FBS, Gibco) and 1% Antibiotic-Antimycotic solution (Thermo-Fisher Scientific). The next day, the cells were treated with 0 (vehicle control), 0.1, 0.5, 1, 5, 10, 30, 50 or 100 μM Compound I-32, I-61, I-1, or III-1 (final concentration of DMSO 0.1%) and were allowed to grow for 72 hours at 37° C. On day 5, 10 μl of PrestoBlue™ Cell Viability Reagent (Invitrogen) was added to each well and the plate was incubated at 37° C. for an additional 1-2 hours.

Test [4] deals with Hep3B cells. The test can be described thus: Cancer cell proliferation (PrestoBlue) in Hep3B cells. It is filed as cell-based, human. The settings on record: Hep3B (h), 72 hours. The procedure:
as §2

Test [5] deals with Hep3B cells. Kind of test: Combination study with sorafenib or lenvatinib, proliferation in Hep3B cells. The settings on record: for Synergistic or additive effect on antiproliferative activity (CompuSyn analysis): in the presence of sorafenib or lenvatinib, FIGS. 8A-8D; for IC50: read-out: IC50 for inhibition of proliferation.
Description: (§3) Hep3B (supplied by ATCC) or Hepa1-6 (supplied by ATCC) cells were seeded in 96-well plates at a density of 500 cells/well with complete media. […] Then, cells were incubated in an incubator for 72 h. On day 5, 10 μl of presto blue (Invitrogen, cat # A13261) cell viability reagent was added in each 96-well plate and incubated at 37° C. for 1-2 h. After incubation, fluorescence was measured with an excitation/emission wavelength of 560/590 nm. […] Proliferation IC50 values were calculated using a non-linear regression model in Graph pad Prism 8.
The test system of the next test is primary hepatocytes (m). The test can be described thus: De novo lipogenesis (DNL) in mouse primary hepatocytes. Format: cell-based. The settings on record: Hepatocyte.
Test [6] has as its system Hepa1-6 cells. The test can be described thus: Combination study with sorafenib or lenvatinib, proliferation in Hepa1-6 cells.
Description: as §3

As for `CC(C)(CCCc1ccccc1CCCC(C)(C)C(=O)O)C(=O)O` [Compound I-61, 5,5′-(1,2-Phenylene)bis(2,2-dimethylpentanoic acid)], the values for the IC50 with Hepa1-6 cells [1] and in the test with Hep3B cells [2] were 73.4 µM and 57.3 µM, respectively. For the same compound, the “Cancer Cell Proliferation % reduction vs control at 100 μM, Mean (Standard Deviation)” value is 21.8 (8.9) % in the test with Hepa1-6 cells [3] and 35.7(5.8) % in the test with Hep3B cells [4]. Besides, the “Synergistic or additive effect on antiproliferative activity (CompuSyn analysis)” value in the test on Hep3B cells [5] (Hep3B cells) is recorded as “synergistic inhibition”.

Turning to `CC(C)(CCCCc1ccc(CCCCC(C)(C)C(=O)O)cc1)C(=O)O` [Compound I-1, 6,6′-(1,4-phenylene)bis(2,2-dimethylhexanoic acid)], the IC50 was 12.1 µM in the test on primary hepatocytes (m), 55.6 µM in the test with Hepa1-6 cells [1] and 53.9 µM in the test on Hep3B cells [2]. Also, the “Cancer Cell Proliferation % reduction vs control at 100 μM, Mean (Standard Deviation)” value was 25.9 (5.7) % with Hepa1-6 cells [3] and 41.8 (8.4) % in the test on Hep3B cells [4].

Take `CC(C)(CCCCc1cccc(CCCCC(C)(C)C(=O)O)c1)C(=O)O` [Compound I-32, 6-[3-(5-Carboxy-5-methylhexyl)-phenyl]-2,2-dimethylhexanoic acid]: the results for the IC50 in the test on primary hepatocytes (m), in the test with Hepa1-6 cells [1] and in the test with Hep3B cells [2] were 8.3 µM, 52.3 µM and 41.7 µM, respectively. The “Cancer Cell Proliferation % reduction vs control at 100 μM, Mean (Standard Deviation)” value is reported as 18.6 (3.1) % in the test with Hepa1-6 cells [3] and 30.8 (2.6) % with Hep3B cells [4]. Further, in the test with Hep3B cells [5] (Hep3B cells), the “Synergistic or additive effect on antiproliferative activity (CompuSyn analysis)” value is recorded as “synergistic inhibition”.

Take `CNC(=O)c1cc(Oc2ccc(NC(=O)Nc3ccc(Cl)c(C(F)(F)F)c3)cc2)ccn1` [sorafenib, reference compound]: the IC50 in the test with Hep3B cells [5] (Hep3B cells, in the absence of a compound of the invention, separate experiment (data not shown)) was 3 µM; in the test with Hepa1-6 cells [6] (read-out: IC50 for inhibition of proliferation, Hepa1-6 cells, in the absence of a compound of the invention, separate experiment (data not shown)), 5 µM.

In the case of `COc1cc2nccc(Oc3ccc(NC(=O)NC4CC4)c(Cl)c3)c2cc1C(N)=O` [lenvatinib, reference compound], the IC50 is 0.5 µM in the test with Hep3B cells [5] (Homo sapiens, Hep3B) and 30 µM in the test with Hepa1-6 cells [6] (Mus musculus, Hepa1-6, read-out: IC50 for inhibition of proliferation).

With `CC(C)(CCCc1ccc(CCCC(C)(C)C(=O)O)cc1)C(=O)O` [III-1, 1,4-Bis(4-carboxy-4-methylpentyl)benzene], the IC50 in the test with Hepa1-6 cells [1] was found to be 61 µM; with Hep3B cells [2] it was 55.6 µM. Further, the “Cancer Cell Proliferation % reduction vs control at 100 μM, Mean (Standard Deviation)” value in the test with Hepa1-6 cells [3] was 15.7 (6.7) %; in the test with Hep3B cells [4], 29.7 (6.2) %.
